Reference: patent US12134651B2, “Anti-Ryk antibodies and methods of using the same” (The Regents of the University of California, priority 2016, dated 2024)
“Also recorded” adds a separate entry of the source.

Test system: E16.5 cortical neurons
Assay: Protection of cortical neurons from axonal degeneration induced by aPKC PS
Assay type: cell-based, mouse
Conditions: 10 μM taxol 2 h prior to and during 2 h treatment of 7 μM aPKC PS
Procedure: Cerebral cortical cell culture—E16.5 mouse pregnant females were sacrificed by CO2 asphyxia and cervical dislocation. Embryos were removed from uterine horns. Skin, skull, and meninges were removed from embryo heads. The cortex was dissected in L-15 medium (Sigma), digested with 0.025% trypsin/0.221 mM EDTA (Mediatech) for 20 min followed by incubation in 5% horse serum prepared in L-15 medium for 5 min to inhibit trypsin. […]
Image acquisition and analysis—All images were acquired on an inverted Zeiss LSM510 confocal microscope with LSM acquisition software (Carl Zeiss Microscopy). For quantification of P-PKCζ T410 immunoreactivity in cell cultures, exposure time was adjusted to be under the saturation level for the highest immunofluorescence signal and was conserved between the different samples. Mean immunofluorescence intensity level in neuronal cell bodies was measured using FiJi-ImageJ software (NIH). All quantifications were performed on 10 non-overlapping fields in cell cultures from at least three independent experiments and on four non-consecutive sections from at least three animals for in vivo experiments. […]

CC(=O)O[C@H]1C(=O)[C@@]2(C)[C@H]([C@H](OC(=O)c3ccccc3)[C@]3(O)C[C@H](OC(=O)[C@H](O)[C@@H](NC(=O)c4ccccc4)c4ccccc4)C(C)=C1C3(C)C)[C@]1(OC(C)=O)CO[C@@H]1C[C@@H]2O [taxol, reference compound]
axon degeneration induced by aPKC inhibition: reduced; also recorded: partially prevented
